In patent US20070054804A1, “Use of fungicides for disinfecting cereal seed” (BAYER CROPSCIENCE AKTIENGESELLSCHAFT, priority 2003, published 2007) one finds Efficacy in % data, which are given here for two compounds.

This experiment deals with Fusarium nivale. Briefly: Fusarium nivale test (wheat)/seed treatment. It is filed as in vivo. As to conditions: seed dressing of infected wheat seed, evaluated three weeks after sowing, 0% = control, 100% = no infection. The procedure: Fusarium nivale Test (Wheat)/Seed Treatment The active compounds or the active compound combination are/is applied using commercially available liquid seed dressings of the individual active compounds or the active compound combination. For seed dressing, the infected seed is shaken with the seed dressing in question in a closed plastic container for 3 minutes. For each test, in two seed trays in each case 100 wheat corns are sown at a depth of 3 cm in sand and covered with a layer of fine particulate clay. The seed trays are then placed in a greenhouse at a temperature of about 10° C. and a relative atmospheric humidity of 95% and exposed to light for 15 hours per day. Three weeks after sowing, the plants are evaluated for symptoms. The efficacy is expressed in %. 0% means an efficacy which corresponds to that of the control, whereas an efficacy of 100% means that no infection is observed.

In the case of `OC(Cc1ccccc1Cl)(Cn1nc[nH]c1=S)C1(Cl)CC1` (centres unmarked) [prothioconazole, 2-[2-(1-chlorocyclopropyl)-3-(2-chlorophenyl)-2-hydroxypropyl]-2,4-dihydro[1,2,4]-triazole-3-thione], for the setting “5 g active compound per 100 kg of seed”, the Efficacy in % worked out at 57%.
Take `CC(C)(C)C(O)(CCc1ccc(Cl)cc1)Cn1cncn1` (centres unmarked) [tebuconazole]: the Efficacy in % (3 g active compound per 100 kg of seed) stood at 11%.
